pEC50: −log10 of the molar value. Read-outs that look alike come from different tables or passages of the source. Marks after values point to notes of the source that are not given here.
How the values were obtained:
[1] = tested on: T. brucei brucei Lister 427; test: Trypanosome replication assay; assay type: cell-based, Trypanosoma brucei brucei; conditions: 48 h, values ±7%
Experimental: Then 2 μL of DMSO (control) or different concentrations of drugs prepared from 200× DMSO stocks were added to the cultures. Cells were incubated at 37° C. for 48 h and counted with a hemocytometer. […] All experiments were repeated thrice in independent studies where each dose was administered in duplicate (total n=6). HepG2 Cell Toxicity Assay. The 384 well MTT cytotoxicity assay is a modification of the MTT method described by Ferrari et al. optimized for 384-well throughput, with modifications described below.

T. cruzi = T. cruzi growth inhibition; assay type: cell-based, Trypanosoma cruzi
L. major promastigote = L. major promastigote assay; assay type: cell-based
P. falciparum D6 = P. falciparum D6 assay; assay type: cell-based; conditions: strain D6
P. falciparum C235 = P. falciparum C235 assay; assay type: cell-based; conditions: read-out: P. falciparum C235 (EC50)
L. major amastigote = L. major amastigote assay; assay type: cell-based
P. falciparum W2 = P. falciparum W2 assay; assay type: cell-based
[2] = concentration giving 50% inhibition of growth of T brucei brucei Lister 427 cells, read-out: Tbb EC50
[3] = Trypanosoma brucei, concentration giving 50% inhibition of growth of T brucei brucei Lister 427 cells, read-out: Tbb EC50
[4] = Trypanosoma brucei, read-out: Tbb EC50, concentration giving 50% inhibition of growth of T brucei brucei Lister 427 cells
[5] = strain W2, read-out: P. falciparum W2 (EC50)
[6] = Plasmodium falciparum, strain C235
[7] = Plasmodium falciparum, strain W2, read-out: P. falciparum W2 (EC50)

CCCS(=O)(=O)CCNCc1ccc(-c2ccc3ncnc(Nc4ccc(OCc5cccc(F)c5)c(Cl)c4)c3c2)o1 [Compound 3, reference compound]
pEC50 [1, 2]: 6.37

CC(C)S(=O)(=O)CCNCc1ccc(-c2ccc3ncnc(Nc4ccc(OCc5cccc(F)c5)c(Cl)c4)c3c2)o1 [Compound 4, reference compound]
pEC50 [1, 2]: 6.32

CS(=O)(=O)CCNCc1ccc(-c2ccc3ncnc(Nc4ccc(OCc5ccccc5)c(Br)c4)c3c2)o1 [Compound 7, reference compound]
pEC50 [1, 2]: 6.25

CS(=O)(=O)CCN(Cc1ccccc1)Cc1ccc(-c2ccc3ncnc(Nc4ccc(OCc5cccc(F)c5)c(Cl)c4)c3c2)o1 [Compound 9, reference compound]
pEC50 [1, 2]: 5.82

Cc1ccc(-c2ccc3ncnc(Nc4ccc(OCc5cccc(F)c5)c(Cl)c4)c3c2)c2ccccc12 [Compound 10b, N-(3-Chloro-4-((3-fluorobenzyl)oxy)phenyl)-6-(4-methylnaphthalen-1-yl)quinazolin-4-amine]
pEC50 [1, 3]: 5.64

CCNC(=O)c1ccc(-c2ccc3ncnc(Nc4ccc(OCc5cccc(F)c5)c(Cl)c4)c3c2)cc1F [Compound 10c, 4-(4-4-((3-Chloro-4-((3-fluorobenzyl)oxy)phenyl)amino)-quinazolin-6-yl)-N-ethyl-2-fluorobenzamide]
pEC50 [1, 2]: 5.41

Cc1nnc(-c2cccc(-c3ccc4ncnc(Nc5ccc(OCc6cccc(F)c6)c(Cl)c5)c4c3)c2)o1 [Compound 10d, N-(3-Chloro-4-((3-fluorobenzyl)oxy)phenyl)-6-(3-(5-methyl-1,3,4-oxadiazol-2-1)phenyl)quinazolin-4-amine]
pEC50 [1, 2]: 5.38

O=C(NC1CC1)c1cccc(-c2ccc3ncnc(Nc4ccc(OCc5cccc(F)c5)c(Cl)c4)c3c2)c1 [Compound 10e, 3-(4-((3-Chloro-4-((3-fluorobenzyl)oxy)phenyl)amino)-quinazolin-6-yl)-N-cyclopropylbenzamide]
pEC50 [1, 3]: 5.35

Fc1cccc(COc2ccc(Nc3ncnc4ccc(-c5cccc6ncccc56)cc34)cc2Cl)c1 [Compound 10f, N-(3-Chloro-4-((3-fluorobenzyl)oxy)phenyl)-6-(quinolin-5-yl)quinazolin-4-amine]
pEC50 [1, 3]: 5.34

Fc1cccc(COc2ccc(Nc3ncnc4ccc(-c5ccccc5Oc5ccccc5)cc34)cc2Cl)c1 [Compound 10g, N-(3-Chloro-4-((3-fluorobenzyl)oxy)phenyl)-6-(2-phenoxyphenyl)quinazolin-4-amine]
pEC50 [1, 3]: 5.28

Fc1cccc(COc2ccc(Nc3ncnc4ccc(-c5cc6ccccc6s5)cc34)cc2Cl)c1 [Compound 10h, 6-(Benzo[b]thiopen-2-yl)-N-(3-chloro-4-((3-fluorobenzyl)-oxy)phenyl)quinazolin-4-amine]
pEC50 [1, 2]: 5.22

Oc1ccc(-c2ccc3ncnc(Nc4ccc(OCc5cccc(F)c5)c(Cl)c4)c3c2)cc1 [Compound 10i, 4-(4-((3-Chloro-4-((3-fluorobenzyl)oxy)phenyl)amino)-quinazolin-6-yl)phenol]
pEC50 [1, 4]: 5.19

O=c1[nH]cc(-c2ccc3ncnc(Nc4ccc(OCc5cccc(F)c5)c(Cl)c4)c3c2)c(=O)[nH]1 [Compound 10j]
pEC50 [1, 2]: 4.65

CC(C)(C)NS(=O)(=O)c1ccccc1-c1ccc2ncnc(Nc3ccc(OCc4cccc(F)c4)c(Cl)c3)c2c1 [Compound 10w, N-(tert-Butyl)-2-(4-((3-chloro-4-((3-fluorobenzyl)oxy)-phenyl)amino)quinazolin-6-yl)benzenesulfonamide]
pEC50 (T. cruzi; Trypanosoma cruzi): 5.19 | pEC50 [1, 3]: 5.33 | pEC50 ([1]; concentration giving 50% inhibition of growth of T brucei brucei Lister 427 cells, listed as NEU-620, read-out: Tbb EC50): 5.33

Cl.O=S(=O)(c1ccc(-c2ccc3ncnc(Nc4ccc(OCc5ccccc5F)c(Cl)c4)c3c2)cc1)N1CCOCC1 [Compound 20i]
T. cruzi % inh at 10 μM (T. cruzi): 10%

Fc1cccc(COc2ccc(Nc3ncnc4ccc(-c5cccc(CN6CCOCC6)c5)cc34)cc2Cl)c1 [Compound 23c]
pEC50 (L. major promastigote): 5.48 | pEC50 (T. cruzi): 5.62 | pEC50 (P. falciparum D6): 6.72 | pEC50 (P. falciparum C235; strain C235): 6.54 | pEC50 (L. major amastigote): 5.52 | pEC50 (P. falciparum W2; [5]): 6.46 | pEC50 [1, 2]: 6.44

O=C(c1cccc(-c2ccc3ncnc(Nc4ccc(OCc5cccc(F)c5)c(Cl)c4)c3c2)c1)N1CCOCC1 [Compound 23e, (3-(4-((3-Chloro-4-((3-fluorobenzyl)oxy)phenyl)amino)-quinazolin-6-yl)phenyl)(morpholino)methanone]
pEC50 (L. major promastigote; Leishmania major): 5.52 | pEC50 (T. cruzi; Trypanosoma cruzi): 5.46 | pEC50 (P. falciparum D6; Plasmodium falciparum): 6.12 | pEC50 (P. falciparum C235; [6]): 5.92 | pEC50 (L. major amastigote; Leishmania major): < 4.82 | pEC50 (P. falciparum W2; [7]): 5.96 | pEC50 [1, 3]: 6.26

O=C(c1ccc(-c2ccc3ncnc(Nc4ccc(OCc5cccc(F)c5)c(Cl)c4)c3c2)cc1)N1CCOCC1 [Compound 23f, (4-(4-((3-Chloro-4-((3-fluorobenzyl)oxy)phenyl)amino)-quinazolin-6-yl)phenyl)(morpholino)methanone]
pEC50 (L. major promastigote; Leishmania major): 6.07 | pEC50 (T. cruzi; Trypanosoma cruzi): 5.55 | pEC50 (P. falciparum D6; Plasmodium falciparum): 6.40 | pEC50 (P. falciparum C235; [6]): 6.21 | pEC50 (L. major amastigote; Leishmania major): 5.85 | pEC50 (P. falciparum W2; [7]): 6.07 | pEC50 [1, 3]: 5.92 | pEC50 ([1]; concentration giving 50% inhibition of growth of T brucei brucei Lister 427 cells, listed as NEU-783, read-out: Tbb EC50): 5.92

Fc1cccc(COc2ccc(Nc3ncnc4ccc(-c5ccc(N6CCCCC6)cc5)cc34)cc2Cl)c1 [Compound 23h, N-(3-Chloro-4-((3-fluorobenzyl)oxy)phenyl)-6-(4-(piperidin-1-yl)phenyl)quinazolin-4-amine]
pEC50 (L. major promastigote; Leishmania major): < 4.82 | pEC50 (T. cruzi; Trypanosoma cruzi): 5.14 | pEC50 (P. falciparum D6; Plasmodium falciparum): 6.24 | pEC50 (P. falciparum C235; Plasmodium falciparum): 6.00 | pEC50 (L. major amastigote; Leishmania major): 5.30 | pEC50 (P. falciparum W2; Plasmodium falciparum, W2, read-out: P. falciparum W2 (EC50)): 5.92 | pEC50 [1, 4]: 6.42

Fc1cccc(COc2ccc(Nc3ncnc4ccc(-c5cccc(CN6CCCCC6)c5)cc34)cc2Cl)c1 [Compound 23i]
pEC50 (L. major promastigote): 5.60 | pEC50 (T. cruzi): 5.82 | pEC50 (P. falciparum D6): 7.41 | pEC50 (P. falciparum C235; strain C235): 7.19 | pEC50 (L. major amastigote): 5.46 | pEC50 (P. falciparum W2; [5]): 7.14 | pEC50 [1, 2]: 6.19

Fc1cccc(COc2ccc(Nc3ncnc4ccc(-c5ccc(CN6CCCCC6)cc5)cc34)cc2Cl)c1 [Compound 23j]
pEC50 (L. major promastigote): 5.08 | pEC50 (T. cruzi): 5.47 | pEC50 (P. falciparum D6): 7.17 | pEC50 (P. falciparum C235; strain C235): 7.04 | pEC50 (L. major amastigote): 5.26 | pEC50 (P. falciparum W2; [5]): 6.96 | pEC50 [1, 2]: 5.82

O=C(c1ccc(-c2ccc3ncnc(Nc4ccc(OCc5cccc(F)c5)c(Cl)c4)c3c2)cc1)N1CCCCC1 [Compound 23l, (4-(4-((3-Chloro-4-((3-fluorobenzyl)oxy)phenyl)amino)-quinazolin-6-yl)phenyl)(piperidin-1-yl)methanone]
pEC50 (L. major promastigote; Leishmania major): 6.00 | pEC50 (T. cruzi; Trypanosoma cruzi): < 4.30 | pEC50 (P. falciparum D6; Plasmodium falciparum): 6.60 | pEC50 (P. falciparum C235; [6]): 6.44 | pEC50 (L. major amastigote; Leishmania major): 5.54 | pEC50 (P. falciparum W2; [7]): 6.06 | pEC50 [1, 3]: 6.03

O=C(c1cccc(-c2ccc3ncnc(Nc4ccc(OCc5cccc(F)c5)c(Cl)c4)c3c2)c1)N1CCCC1 [NEU-618]
pEC50 (L. major promastigote): < 4.82 | T. cruzi % inh at 10 μM (T. cruzi): (7)* % | pEC50 (P. falciparum D6): 7.16 | pEC50 (P. falciparum C235; strain C235): 7.05 | pEC50 (L. major amastigote): < 4.82 | pEC50 (P. falciparum W2; [5]): 7.05 | pEC50 [1, 2]: 6.28

CC(C)(C)OC(=O)N1CCN(S(=O)(=O)c2ccc(-c3ccc4ncnc(Nc5ccc(OCc6cccc(F)c6)c(Cl)c5)c4c3)cc2)CC1 [NEU-624]
pEC50 (L. major promastigote): 4.85 | T. cruzi % inh at 10 μM (T. cruzi): (5)* % | pEC50 (P. falciparum D6): 6.57 | pEC50 (P. falciparum C235; strain C235): 6.37 | pEC50 (L. major amastigote): 4.85 | pEC50 (P. falciparum W2; [5]): 6.24 | pEC50 [1, 2]: 6.00

Cc1cc(-c2ccc3ncnc(Nc4ccc(OCc5cccc(F)c5)c(Cl)c4)c3c2)cnc1N1CCOCC1 [NEU-632]
pEC50 (L. major promastigote): 5.44 | T. cruzi % inh at 10 μM (T. cruzi): 49% | pEC50 (P. falciparum D6): 6.59 | pEC50 (P. falciparum C235; strain C235): 6.44 | pEC50 (L. major amastigote): 5.96 | pEC50 (P. falciparum W2; [5]): 6.27 | pEC50 [1, 2]: 6.00

CC(C)(C)OC(=O)N1CCN(c2ccc(-c3ccc4ncnc(Nc5ccc(OCc6cccc(F)c6)c(Cl)c5)c4c3)cc2)CC1 [NEU-634]
pEC50 (L. major promastigote): 5.51 | T. cruzi % inh at 10 μM (T. cruzi): (8)* % | pEC50 (P. falciparum D6): 6.07 | pEC50 (P. falciparum C235; strain C235): 5.96 | pEC50 (L. major amastigote): 5.51 | pEC50 (P. falciparum W2; [5]): 5.49 | pEC50 [1, 2]: 5.22

O=C(c1cncc(-c2ccc3ncnc(Nc4ccc(OCc5cccc(F)c5)c(Cl)c4)c3c2)c1)N1CCOCC1 [NEU-640]
pEC50 (L. major promastigote): < 4.82 | T. cruzi % inh at 10 μM (T. cruzi): −2% | pEC50 (P. falciparum D6): 6.43 | pEC50 (P. falciparum C235; strain C235): 6.30 | pEC50 (L. major amastigote): < 4.82 | pEC50 (P. falciparum W2; [5]): 6.20 | pEC50 [1, 2]: 6.47

Fc1cccc(COc2ccc(Nc3ncnc4ccc(-c5ccccc5)cc34)cc2Cl)c1 [NEU-706]
pEC50 (L. major promastigote): 5.40 | pEC50 (T. cruzi): 5.74 | pEC50 (P. falciparum D6): 6.10 | pEC50 (P. falciparum C235; strain C235): 5.92 | pEC50 (L. major amastigote): 4.66 | pEC50 (P. falciparum W2; [5]): 5.59 | pEC50 [1, 2]: 5.41

CN(C)c1cccc(-c2ccc3ncnc(Nc4ccc(OCc5cccc(F)c5)c(Cl)c4)c3c2)c1 [NEU-708]
pEC50 (L. major promastigote): < 4.82 | T. cruzi % inh at 10 μM (T. cruzi): (58)* % | pEC50 (P. falciparum D6): 6.34 | pEC50 (P. falciparum C235; strain C235): 6.26 | pEC50 (L. major amastigote): < 4.82 | pEC50 (P. falciparum W2; [5]): 5.85 | pEC50 [1, 2]: 5.66

Fc1cccc(COc2ccc(Nc3ncnc4ccc(-c5cccc(N6CCNCC6)c5)cc34)cc2Cl)c1 [NEU-711]
pEC50 (T. cruzi): 5.66 | pEC50 [1, 2]: 6.60
